Data taken from US6342514B1, “Compositions and methods for treating bone deficit conditions” (ZymoGenetics, Inc., priority 1996, dated 2002).

How the values were obtained:
mouse BMP2 promoter = assay: High throughput screening: BMP-2 promoter luciferase reporter assay in 2T3-BMP-2-LUC cells; assay type: cell-based; settings: at about 3 μM
Description: A rapid throughput screening test for compounds capable of stimulating expression of a reporter gene linked to a BMP promoter (a surrogate for the production of bone morphogenetic factors that are endogenously produced) is described in U.S. application Ser. No. 08/458,434, filed Jun. 2, 1995, the contents of which are incorporated herein by reference. This assay is also described as a portion of a study of immortalized murine osteoblasts (derived from a mouse expressing a transgene composed of a BMP2 promoter driving expression of T-antigen) in Ghosh-Choudhery, N. et al. Endocrinology (1996) 137:331-39. […]
Briefly, the assay utilizes cells transformed permanently or transiently with constructs in which the promoter of a bone morphogenetic protein, specifically BMP2 or BMP4, is coupled to a reporter gene, typically luciferase. These transformed cells are then evaluated for the production of the reporter gene product; compounds that activate the BMP promoter will drive production of the reporter protein, which can be readily assayed. […]
The treated cells were incubated for 24 hours at 37° C. and 5% CO2. […] Luminescence was measured on an automated 96-well luminometer, and was expressed as either picograms of luciferase activity per well or as picograms of luciferase activity per microgram of protein. […]

[1] = test system: calvarial bone of ICR Swiss white mice; assay: In vivo assay of effects of compounds on murine calvarial bone growth; parameters: species or system mouse; settings: subcutaneous injection over right calvaria, day 14, compared to vehicle control
Method: Male ICR Swiss white mice, aged 4-6 weeks and weighing 13-26 gm, are employed, using 4-5 mice per group. The calvarial bone growth assay is performed as described in PCT application WO 95/24211. Briefly, the test compound or appropriate control vehicle is injected into the subcutaneous tissue over the right calvaria of normal mice. Typically, the control vehicle is the vehicle in which the compound was solubilized, and is PBS containing 5% DMSO or is PBS containing Tween (2 μl/10 ml). The animals are sacrificed on day 14 and bone growth measured by histomorphometry. Bone samples for quantitation are cleaned from adjacent tissues and fixed in 10% buffered formalin for 24-48 hours, decalcified in 14% EDTA for 1-3 weeks, processed through graded alcohols; and embedded in paraffin wax. Three to five μm sections of the calvaria are prepared, and representative sections are selected for histomorphometric assessment of the effects on bone formation and bone resorption. Sections are measured by using a camera lucida attachment to trace directly the microscopic image onto a digitizing plate. Bone changes are measured on sections cut 200 μm apart, over 4 adjacent 1×1 mm fields on both the injected and noninjected sides of the calvaria. New bone is identified by its characteristic woven structure, and osteoclasts and osteoblasts are identified by their distinctive morphology. […]

[2] = test system: TMC-23 mouse clonal chondrogenic cell line; assay: Chondrogenic activity: alkaline phosphatase (ALP) activity in TMC-23 cells; assay type: cell-based; settings: day 2, 10^−9 M, compared to vehicle control
Method: Briefly, a mouse clonal chondrogenic cell line, TMC-23, was isolated and cloned from costal cartilage of transgenic mice containing the BMP-2 gene control region driving SV-40 large T-antigen, generated as described in Ghosh-Choudhury et al Endocrinology 137:331-39, 1996.
For measurement of alkaline phosphatase (ALP) activity, the technique of LF Bonewald et al. J Biol Chem (1992) 267:8943-49, was employed. Briefly, TMC-23 cells were plated in 96 well microtiter plates in DMEM containing 10% FCS at 4×10^3 cells/well. Two days after plating, the cells were confluent and the medium was replaced with fresh medium containing 10% FCS and different concentrations of compounds or recombinant BMP-2. After an additional 2 or 5 days incubation, the plates were washed twice with PBS, and then lysing solution (0.05% Triton X-100) was added (100 μl/well). The cells were lysed by three freeze-thaw cycles of −70° C. (30 min), followed by 37° C. (30 min with shaking). […] The spectrophotometric absorbance at 405 nm was compared to that of p-nitrophenol standards to estimate ALP activity in the samples. The protein content of the cell lysates was determined by the Bio-Rad protein assay kit (Bio-Rad, Hercules, Calif.). Specific activity was calculated using these two parameters.

c1ccc(N=NC2=NNc3ccccc3S2)cc1 [Compound 59-0008, 3-phenylazo-1H-4,1,2-benzothiadiazine]
luciferase response at maximal activity (mouse BMP2 promoter): approximately 175 light emission units | increase in width of new calvarial bone [1]: 4 fold | increase of ALP levels [2]: approximately 3 fold
